In the oligonucleotide strings, read from the 5' end, every base follows the letter of its sugar. An asterisk marks phosphorothioate; unmarked linkages are phosphodiester. Other units and linkages are bracketed, terminal groups are in braces. A string of capitals states the bases alone. d = 2'-deoxy (DNA); m = 2'-O-methyl; f = 2'-fluoro
Legend:
Assay type in all cases: cell-based, human
[1] = system: AR FL (full length AR T877A LBD mutant); assay: AR protein knock-down by Western blot after siRNA transfection in LNCaP cells: AR FL; conditions: 5 nM siRNA, 72 h post transfection, compared to controls
Description: (§1) In some instances, a set of AR siRNAs were identified that were predicted to be specific in human and non-human primates (NHP) and cross-reactive with NHPs but not rodent AR mRNA. To identify AR siRNAs that regulate both full length AR and clinically relevant AR splice variants, the search for AR siRNAs was focused primarily, but not exclusively, on exons 1, 2 and 3 of the AR gene, which are common to most AR isoforms. The resulting set of 50 AR siRNAs (Tables 1-3) was assessed in two prostate cancer lines that express high levels of either clinically relevant AR splice variants (22RV1, ATCC) or a full length AR T877A LBD mutant (LNCaP, ATCC). The response of LNCaP tumors in xenograft models to AR antagonists is known to correlate well with clinical responses.
(§2) To monitor their ability to downregulate various AR isoforms, each siRNA was formulated at a single final concentration of 5 nM with a commercially-available transfection reagent (Lipofectamine RNAiMAX, Life Technologies) according to the manufacturer's “forward transfection” instructions. At 50 h (22RV1) and 72 h (LNCaP) post transfection, cells were harvested, and lysed in RIPA buffer (Pierce) supplemented with HALT protease inhibitors (Pierce) using standard procedures. The protein concentration was determined using a BCA protein concentration kit (Pierce). To monitor AR levels in these lysates, proteins (30 ug/lane) were separated by PAGE on BOLT 4-12% Bis-Tris PA gels (Life Technologies), transferred to nitrocellulose using an iBlot dry blot system (Thermo Fisher), and probed with specific antibodies against a region of the N-terminal domain of human AR that is common in known clinically relevant splice variants (N20, Santa Cruz Biotech). A second antibody against α-Tubulin was used as control (P16, Santa Cruz Biotech). Levels of these proteins in the respective cell lysates were quantified on an Odyssey imaging system (LICOR) using appropriate secondary antibodies linked to IRDyes (800CW, 680RD).

AR FL(1) = assay: AR protein knock-down by Western blot after siRNA transfection in 22RV1 cells: AR FL(1); conditions: 5 nM siRNA, 50 h post transfection, compared to controls
Description: as §1, §2

AR-SV(2) = assay: AR protein knock-down by Western blot after siRNA transfection in 22RV1 cells: AR-SV(2); conditions: 5 nM siRNA, 50 h post transfection, compared to controls
Description: as §1, §2

AR-SV(3) = assay: AR protein knock-down by Western blot after siRNA transfection in 22RV1 cells: AR-SV(3); conditions: 5 nM siRNA, 50 h post transfection, compared to controls
Description: as §1, §2

## XD-01831: AR siRNA with chemical modification, Id # 2847; sense X05357 (SEQ ID NO: 187), antisense X05358 (SEQ ID NO: 188) (sense mGmGfAmAfGmCfUmGfCmAfAmGfGmUfCmUfUmCfUdT*dT; antisense fAfGmAfAmGfAmCfCmUfUmGfCmAfGmCfUmUfCmCdT*dT)
[1]
  % KD AR Protein LNCaP AR FL: 87%
AR FL(1)
  % KD AR Protein 22RV1 AR FL(1): 57%
AR-SV(2)
  % KD AR Protein 22RV1 AR-SV(2): 54%
AR-SV(3)
  % KD AR Protein 22RV1 AR-SV(3): 59%

## XD-01853: AR siRNA with chemical modification, Id # 3310; sense X05401 (SEQ ID NO: 231), antisense X05402 (SEQ ID NO: 232) (sense mAmCfGmAfCmCfAmGfAmUfGmGfCmUfGmUfCmAfUdT*dT; antisense fAfUmGfAmCfAmGfCmCfAmUfCmUfGmGfUmCfGmUdT*dT)
[1]
  % KD AR Protein LNCaP AR FL: 99%
AR FL(1)
  % KD AR Protein 22RV1 AR FL(1): 91%
AR-SV(2)
  % KD AR Protein 22RV1 AR-SV(2): −43%
AR-SV(3)
  % KD AR Protein 22RV1 AR-SV(3): 13%

## XD-01815: AR siRNA with chemical modification, Id # 1968; sense X05325 (SEQ ID NO: 155), antisense X05326 (SEQ ID NO: 156) (sense mGmCfCmCfCmAfUmUfGmGfCmCfGmAfAmUfGmCfAdT*dT; antisense fUfGmCfAmUfUmCfGmGfCmCfAmAfUmGfGmGfGmCdT*dT)
[1]
  % KD AR Protein LNCaP AR FL: 91%
AR FL(1)
  % KD AR Protein 22RV1 AR FL(1): −10%
AR-SV(2)
  % KD AR Protein 22RV1 AR-SV(2): 5%
AR-SV(3)
  % KD AR Protein 22RV1 AR-SV(3): −15%

## XD-01855: AR siRNA with chemical modification, Id # 3462; sense X05405 (SEQ ID NO: 235), antisense X05406 (SEQ ID NO: 236) (sense mAmGfCmCfAmGfUmGfUmGfUmCfCmGfAmAfUmGfAdT*dT; antisense fUfCmAfUmUfCmGfGmAfCmAfCmAfCmUfGmGfCmUdT*dT)
[1]
  % KD AR Protein LNCaP AR FL: 75%
AR FL(1)
  % KD AR Protein 22RV1 AR FL(1): 12%
AR-SV(2)
  % KD AR Protein 22RV1 AR-SV(2): −1%
AR-SV(3)
  % KD AR Protein 22RV1 AR-SV(3): −18%

## XD-01854: AR siRNA with chemical modification, Id # 3416; sense X05403 (SEQ ID NO: 233), antisense X05404 (SEQ ID NO: 234) (sense mUmGfAmUfCmUfGmGfUmUfUmUfCmAfAmUfGmAfGdT*dT; antisense fCfUmCfAmUfUmGfAmAfAmAfCmCfAmGfAmUfCmAdT*dT)
[1]
  % KD AR Protein LNCaP AR FL: 93%
AR FL(1)
  % KD AR Protein 22RV1 AR FL(1): 95%
AR-SV(2)
  % KD AR Protein 22RV1 AR-SV(2): 38%
AR-SV(3)
  % KD AR Protein 22RV1 AR-SV(3): 46%

## XD-01845: AR siRNA with chemical modification, Id # 2966; sense X05385 (SEQ ID NO: 215), antisense X05386 (SEQ ID NO: 216) (sense mUmCfGmGfAmAfAmUfGmUfUmAfUmGfAmAfGmCfAdT*dT; antisense fUfGmCfUmUfCmAfUmAfAmCfAmUfUmUfCmCfGmAdT*dT)
[1]
  % KD AR Protein LNCaP AR FL: 99%
AR FL(1)
  % KD AR Protein 22RV1 AR FL(1): 92%
AR-SV(2)
  % KD AR Protein 22RV1 AR-SV(2): 92%
AR-SV(3)
  % KD AR Protein 22RV1 AR-SV(3): 72%

## XD-01834: AR siRNA with chemical modification, Id # 2923; sense X05363 (SEQ ID NO: 193), antisense X05364 (SEQ ID NO: 194) (sense mCmUfAmUfUmGfAmUfAmAfAmUfUmCfCmGfAmAfGdT*dT; antisense fCfUmUfCmGfGmAfAmUfUmUfAmUfCmAfAmUfAmGdT*dT)
[1]
  % KD AR Protein LNCaP AR FL: 91%
AR FL(1)
  % KD AR Protein 22RV1 AR FL(1): 90%
AR-SV(2)
  % KD AR Protein 22RV1 AR-SV(2): 91%
AR-SV(3)
  % KD AR Protein 22RV1 AR-SV(3): 79%

## XD-01818: AR siRNA with chemical modification, Id # 2045; sense X05331 (SEQ ID NO: 161), antisense X05332 (SEQ ID NO: 162) (sense mCmCfCmUfUmUfCmAfAmGfGmGfAmGfGmUfUmAfCdT*dT; antisense fGfUmAfAmCfCmUfCmCfCmUfUmGfAmAfAmGfGmGdT*dT)
[1]
  % KD AR Protein LNCaP AR FL: 93%
AR FL(1)
  % KD AR Protein 22RV1 AR FL(1): −6%
AR-SV(2)
  % KD AR Protein 22RV1 AR-SV(2): −48%
AR-SV(3)
  % KD AR Protein 22RV1 AR-SV(3): 25%

## XD-01860: AR siRNA with chemical modification, Id # 3629; sense X05415 (SEQ ID NO: 245), antisense X05416 (SEQ ID NO: 246) (sense mAmCfUmCfGmAfUmCfGmUfAmUfCmAfUmUfGmCfAdT*dT; antisense fUfGmCfAmAfUmGfAmUfAmCfGmAfUmCfGmAfGmUdT*dT)
[1]
  % KD AR Protein LNCaP AR FL: 99%
AR FL(1)
  % KD AR Protein 22RV1 AR FL(1): 90%
AR-SV(2)
  % KD AR Protein 22RV1 AR-SV(2): −9%
AR-SV(3)
  % KD AR Protein 22RV1 AR-SV(3): 4%

## XD-01852: AR siRNA with chemical modification, Id # 3218; sense X05399 (SEQ ID NO: 229), antisense X05400 (SEQ ID NO: 230) (sense mGmCfUmCfUmCfUmAfGmCfCmUfCmAfAmUfGmAfAdT*dT; antisense fUfUmCfAmUfUmGfAmGfGmCfUmAfGmAfGmAfGmCdT*dT)
[1]
  % KD AR Protein LNCaP AR FL: 34%
AR FL(1)
  % KD AR Protein 22RV1 AR FL(1): 16%
AR-SV(2)
  % KD AR Protein 22RV1 AR-SV(2): 8%
AR-SV(3)
  % KD AR Protein 22RV1 AR-SV(3): 10%

## XD-01862: AR siRNA with chemical modification, Id # 3781; sense X05419 (SEQ ID NO: 249), antisense X05420 (SEQ ID NO: 250) (sense mGmCfGmUfGmGfAmCfUmUfUmCfCmGfGmAfAmAfUdT*dT; antisense fAfUmUfUmCfCmGfGmAfAmAfGmUfCmCfAmCfGmCdT*dT)
[1]
  % KD AR Protein LNCaP AR FL: 87%
AR FL(1)
  % KD AR Protein 22RV1 AR FL(1): 92%
AR-SV(2)
  % KD AR Protein 22RV1 AR-SV(2): 24%
AR-SV(3)
  % KD AR Protein 22RV1 AR-SV(3): 40%

## XD-01822: AR siRNA with chemical modification, Id # 2263; sense X05339 (SEQ ID NO: 169), antisense X05340 (SEQ ID NO: 170) (sense mCmCfCmAfCmGfCmUfCmGfCmAfUmCfAmAfGmCfUdT*dT; antisense fAfGmCfUmUfGmAfUmGfCmGfAmGfCmGfUmGfGmGdT*dT)
[1]
  % KD AR Protein LNCaP AR FL: 88%
AR FL(1)
  % KD AR Protein 22RV1 AR FL(1): 34%
AR-SV(2)
  % KD AR Protein 22RV1 AR-SV(2): 33%
AR-SV(3)
  % KD AR Protein 22RV1 AR-SV(3): 41%

## XD-01841: AR siRNA with chemical modification, Id # 2936; sense X05377 (SEQ ID NO: 207), antisense X05378 (SEQ ID NO: 208) (sense mCmCfGmAfAmGfGmAfAmAfAmAfUmUfGmUfCmCfAdT*dT; antisense fUfGmGfAmCfAmAfUmUfUmUfUmCfCmUfUmCfGmGdT*dT)
[1]
  % KD AR Protein LNCaP AR FL: 99%
AR FL(1)
  % KD AR Protein 22RV1 AR FL(1): 85%
AR-SV(2)
  % KD AR Protein 22RV1 AR-SV(2): 85%
AR-SV(3)
  % KD AR Protein 22RV1 AR-SV(3): 74%

## XD-01843: AR siRNA with chemical modification, Id # 2961; sense X05381 (SEQ ID NO: 211), antisense X05382 (SEQ ID NO: 212) (sense mCmGfUmCfUmUfCmGfGmAfAmAfUmGfUmUfAmUfGdT*dT; antisense fCfAmUfAmAfCmAfUmUfUmCfCmGfAmAfGmAfCmGdT*dT)
[1]
  % KD AR Protein LNCaP AR FL: 94%
AR FL(1)
  % KD AR Protein 22RV1 AR FL(1): 78%
AR-SV(2)
  % KD AR Protein 22RV1 AR-SV(2): 75%
AR-SV(3)
  % KD AR Protein 22RV1 AR-SV(3): 47%

## XD-01861: AR siRNA with chemical modification, Id # 3779; sense X05417 (SEQ ID NO: 247), antisense X05418 (SEQ ID NO: 248) (sense mGmAfGmCfGmUfGmGfAmCfUmUfUmCfCmGfGmAfAdT*dT; antisense fUfUmCfCmGfGmAfAmAfGmUfCmCfAmCfGmCfUmCdT*dT)
[1]
  % KD AR Protein LNCaP AR FL: 99%
AR FL(1)
  % KD AR Protein 22RV1 AR FL(1): 90%
AR-SV(2)
  % KD AR Protein 22RV1 AR-SV(2): 11%
AR-SV(3)
  % KD AR Protein 22RV1 AR-SV(3): 51%

## XD-01832: AR siRNA with chemical modification, Id # 2920; sense X05359 (SEQ ID NO: 189), antisense X05360 (SEQ ID NO: 190) (sense mGmCfAmCfUmAfUmUfGmAfUmAfAmAfUmUfCmCfGdT*dT; antisense fCfGmGfAmAfUmUfUmAfUmCfAmAfUmAfGmUfGmCdT*dT)
[1]
  % KD AR Protein LNCaP AR FL: 92%
AR FL(1)
  % KD AR Protein 22RV1 AR FL(1): 93%
AR-SV(2)
  % KD AR Protein 22RV1 AR-SV(2): 93%
AR-SV(3)
  % KD AR Protein 22RV1 AR-SV(3): 73%

## XD-01856: AR siRNA with chemical modification, Id # 3469; sense X05407 (SEQ ID NO: 237), antisense X05408 (SEQ ID NO: 238) (sense mGmUfGmUfCmCfGmAfAmUfGmAfGmGfCmAfCmCfUdT*dT; antisense fAfGmGfUmGfCmCfUmCfAmUfUmCfGmGfAmCfAmCdT*dT)
[1]
  % KD AR Protein LNCaP AR FL: 99%
AR FL(1)
  % KD AR Protein 22RV1 AR FL(1): 77%
AR-SV(2)
  % KD AR Protein 22RV1 AR-SV(2): −61%
AR-SV(3)
  % KD AR Protein 22RV1 AR-SV(3): −74%
